{"source": "paper PMC3225327", "about": "(Journal of Biomedical Science, 2011)", "tested_on": "PDE1", "assay": "Inhibition of PDE1 activity, two-step procedure", "assay_type": "biochemical", "conditions": "homogenate of guinea pig lungs or hearts", "method": "Activities of PDE1~5 in the homogenate of guinea pig lungs or hearts were measured by a two-step procedure according to the previous method, using cAMP with [^3H]-cAMP or cGMP with [^3H]-cGMP as substrates. […] The reagents and homogenate were mixed on ice, and the reaction was initiated by transferring the mixture to a water bath at 37°C. Following a 30-min incubation, the reaction was stopped by transferring the reaction vessel to a bath of boiling water for 3 min. After cooling on ice, 20 μl of a 1 mg/ml solution of Crotalus atrox snake venom was added to the reaction mixture, and the mixture was incubated at 37°C for 10 min. Unreacted [^3H]-cAMP or [^3H]-cGMP was removed by the addition of 500 μl of a 1-in-1 Tris-HCl (40 mM) buffer suspension of Dowex resin (1 × 8-200) with incubation on ice for 30 min. Each tube was then centrifuged at 3700 g for 2 min, and 150 μl of the supernatant was removed for liquid scintillation counting. […] The total protein in each fraction used was assayed according to a previous method. PDE activities are reported as nmol/mg/min."}
{"smiles": "COc1cc(O)c2c(c1)O[C@H](c1ccc(OC)c(OC)c1)CC2=O", "note": "[HDME, hesperetin-7,3'-O-dimethylether]", "values": [{"measurement": "IC50", "result": "22.1 ± 6.4", "unit": "µM"}]}
